Consider 35 compounds from ChEMBL document CHEMBL1136498, “Ureas of 5-aminopyrazole and 2-aminothiazole inhibit growth of gram-positive bacteria” (Bioorg Med Chem Lett, 2003).

Assay [1] relates to Staphylococcus aureus. Kind of assay: Minimal inhibitory concentration for Staphylococcus aureus bacteria (ATCC 9604 SV) was determined by broth microdilution methodology. Format: functional. Background: Dilution methods test growth across graded concentrations, often in twofold steps.
The subject of assay [2] is Staphylococcus aureus. Kind of assay: Concentration that inhibits 50% growth of methicillin resistant Staphylococcus aureus in the microdilution wells. It counts as functional, organism-based.
The test system of assay [3] is Staphylococcus aureus. The assay can be described thus: Concentration that inhibits 50% growth of methicillin resistant Staphylococcus aureus in the microdilution wells; IA=Inactive. It counts as functional, organism-based.
In assay [4] the test system is Staphylococcus aureus. The assay can be described thus: Minimal inhibitory concentration for Staphylococcus aureus bacteria (ATCC 9604 SV) was determined by broth microdilution methodology; IA=Inactive. It counts as functional, organism-based.
Assay [5] deals with Mus musculus. The assay can be described thus: In vivo efficacy versus methicillin resistant Staphylococcus aureus in mice administered sc at 2x20mg/kg, expressed as percent survival. It counts as functional.
In assay [6] the test system is Mus musculus. The assay can be described thus: In vivo efficacy versus methicillin resistant Staphylococcus aureus in mice administered sc at 2x2mg/kg, expressed as percent survival. It counts as functional.
Assay [7] deals with Mus musculus. Kind of assay: In vivo efficacy versus methicillin resistant Staphylococcus aureus in mice administered sc at 2mg/kg, expressed as percent survival. It counts as functional.
For assay [8], the system named is Mus musculus. Kind of assay: In vivo efficacy versus methicillin resistant Staphylococcus aureus in mice administered sc at 20 mg/kg, expressed as percent survival. It counts as functional. As to conditions: route subcutaneous.

Converted amounts (≈) assume the structure as drawn. The source made the active and inactive calls. The calls are words filed in the database; no cut-off is given here.

Broadly, the MIC is the lowest concentration found to suppress growth. Usually IC50 stands for the concentration at which inhibition is half-maximal. With `Cc1cc(NC(=O)Nc2cc(C(F)(F)F)cc(C(F)(F)F)c2)n(-c2ccc(Br)cc2)n1`, in the assay with Staphylococcus aureus [1], the MIC was below 0.761 mg/L. Further, inhibition with Staphylococcus aureus [2] was half-maximal at 0.268 µM (IC50).
For the compound `O=C(Nc1ccccc1-c1ccccc1)Nc1cc(-c2ccccc2)nn1-c1ccc(C(F)(F)F)cc1`, the IC50 entry in the assay on Staphylococcus aureus [3] is listed as “Not Active”. The MIC result in the assay on Staphylococcus aureus [4] is “inactive”.
Compound `O=C(Nc1cc(C(F)(F)F)cc(C(F)(F)F)c1)Nc1nc(CCCO)cs1` came in with a concentration for half-maximal inhibition (IC50) with Staphylococcus aureus [2] of 2.07 µM.
For the compound `COc1ccc(-c2csc(NC(=O)Nc3cc(C(F)(F)F)cc(C(F)(F)F)c3)n2)c(OC)c1`, the IC50 in the assay with Staphylococcus aureus [2] was above 5 µM.
In the case of `O=C(Nc1nc(-c2ccc(Cl)cc2)cs1)Nc1ccc(Br)cc1C(F)(F)F`, the IC50 in the assay with Staphylococcus aureus [2] is 4.71 µM.
In turn, `O=C(Nc1nc(-c2ccc(Cl)cc2)cs1)Nc1c(Cl)cc(Cl)cc1Cl` registered an IC50 in the assay on Staphylococcus aureus [2] of 0.927 µM.
Regarding `O=C(NCc1cccc(Cl)c1)Nc1nc(C2CCCC2)cs1`, the Survival in the assay on Mus musculus [5] and with Mus musculus [6] was 25% throughout. The minimum inhibitory concentration (MIC) against Staphylococcus aureus [1] stood at 8.4 mg/L (≈ 25 µM).
With `O=C(Nc1ccc(Cl)c(C(F)(F)F)c1)Nc1cc(-c2ccccc2)nn1-c1ccc(C(F)(F)F)cc1`, the minimum inhibitory concentration (MIC) against Staphylococcus aureus [1] is below 0.787 mg/L. In the assay on Staphylococcus aureus [2], the IC50 was 0.096 µM.
`CCOC(=O)c1cnn(-c2ccc(Br)cc2)c1NC(=O)Nc1cc(C(F)(F)F)cc(C(F)(F)F)c1` gave a minimum inhibitory concentration (MIC) in the assay with Staphylococcus aureus [1] below 0.848 mg/L. The compound also returned a half-inhibitory concentration (IC50) in the assay on Staphylococcus aureus [2] of 0.261 µM.
On to `O=C(Nc1cc(Cl)cc(Cl)c1)Nc1cc(-c2ccccc2)nn1-c1ccc(Cl)cc1`, for which the minimum inhibitory concentration (MIC) in the assay with Staphylococcus aureus [1] was above 22.9 mg/L. For the same compound, in the assay on Mus musculus [7], the survival at 2 mg/kg is 25%. The same compound displayed an IC50 in the assay with Staphylococcus aureus [2] of 0.148 µM. This compound yielded a survival at 20 mg/kg in the assay with Mus musculus [8] of 25%.
Turning to `Cc1cc(C)cc(NC(=O)Nc2cc(-c3ccccc3)nn2-c2ccc(C(F)(F)F)cc2)c1`, the half-maximal inhibitory concentration (IC50) result with Staphylococcus aureus [3] is recorded as “Not Active”. In addition, the MIC result in the assay with Staphylococcus aureus [4] was “inactive”.
As to `CN[C@H](CC(C)C)C(=O)N[C@H]1C(=O)N[C@@H](CC(N)=O)C(=O)N[C@H]2C(=O)N[C@H]3C(=O)N[C@H](C(=O)N[C@H](C(=O)O)c4cc(O)cc(O)c4-c4cc3ccc4O)[C@H](O)c3ccc(c(Cl)c3)Oc3cc2cc(c3O[C@@H]2O[C@H](CO)[C@@H](O)[C@H](O)[C@H]2O[C@H]2C[C@](C)(N)[C@H](O)[C@H](C)O2)Oc2ccc(cc2Cl)[C@H]1O` [VANCOMYCIN], the Survival in the assay on Mus musculus [5] was found to be 100%; in the assay with Mus musculus [6] it was 25%. The same compound displayed a minimal inhibitory concentration (MIC) in the assay with Staphylococcus aureus [1] of 0.75 mg/L (≈ 0.518 µM). Also, half-maximal inhibition in the assay with Staphylococcus aureus [2] (IC50) was put at 0.839 µM.
In turn, `O=C(Nc1cc(C(F)(F)F)cc(C(F)(F)F)c1)Nc1nc(-c2cccs2)cs1` returned a minimal inhibitory concentration (MIC) against Staphylococcus aureus [1] of 1.31 mg/L (≈ 3 µM). In addition, the IC50 in the assay on Staphylococcus aureus [2] came out at 0.259 µM.
Regarding `O=C(Nc1cc(C(F)(F)F)cc(C(F)(F)F)c1)Nc1cc(CO)nn1-c1ccc(Br)cc1`, the Survival with Mus musculus [5] and in the assay on Mus musculus [6] was 33% throughout. In the assay on Staphylococcus aureus [1], this compound displayed an MIC of 6.54 mg/L (≈ 12.5 µM). This compound also showed a concentration for half-maximal inhibition (IC50) in the assay with Staphylococcus aureus [2] of 4.24 µM.
Consider `O=C(Nc1cc(C(F)(F)F)cc(C(F)(F)F)c1)Nc1cc(-c2ccccc2)nn1-c1ccc(C(F)(F)F)cc1`, for which the minimal inhibitory concentration (MIC) in the assay with Staphylococcus aureus [1] is below 0.838 mg/L. Further, in the assay with Mus musculus [7], the survival at 2 mg/kg was 0%. Also, in the assay on Staphylococcus aureus [2], the IC50 was 0.054 µM. This compound showed a survival at 20 mg/kg in the assay on Mus musculus [8] of 0%.
Consider `O=C(Nc1ccc(C(F)(F)F)cc1Cl)Nc1cc(-c2ccccc2)nn1-c1ccc(C(F)(F)F)cc1`, for which the IC50 entry in the assay with Staphylococcus aureus [3] is “Not Active”. For the same compound, the MIC entry in the assay with Staphylococcus aureus [4] is “inactive”.
`O=C(Nc1ccc(F)c(C(F)(F)F)c1)Nc1nc(-c2ccc(F)c(F)c2)cs1` displayed a minimal inhibitory concentration (MIC) against Staphylococcus aureus [1] below 0.626 mg/L. In the assay with Mus musculus [7], this compound yielded a survival at 2 mg/kg of 0%. In the assay on Staphylococcus aureus [2], this compound returned a concentration for half-maximal inhibition (IC50) of 0.18 µM. In the assay with Mus musculus [8], this compound registered a survival at 20 mg/kg of 0%.
In the assay on Staphylococcus aureus [1], `O=C(Nc1ccc(SC(F)(F)F)cc1)Nc1nc(-c2ccc(F)c(F)c2)cs1` showed an MIC below 0.647 mg/L. This compound returned an IC50 in the assay on Staphylococcus aureus [2] of 0.134 µM.
Regarding `Cc1cc(C)cc(NC(=O)Nc2nc(-c3ccc(Cl)cc3)cs2)c1`, the IC50 with Staphylococcus aureus [2] was above 5 µM.
On to `O=C(Nc1cc(C(F)(F)F)cc(C(F)(F)F)c1)Nc1cc(-c2ccncc2)nn1-c1ccc(C(F)(F)F)cc1`, for which the Survival in the assay with Mus musculus [5] was 17%; in the assay with Mus musculus [6], 0%. This compound registered an MIC against Staphylococcus aureus [1] of 1.68 mg/L (≈ 3 µM). Also, the survival at 2 mg/kg with Mus musculus [7] is 25%. In the assay with Staphylococcus aureus [2], this compound registered an IC50 of 0.214 µM. Besides, the survival at 20 mg/kg in the assay with Mus musculus [8] was 25%.
As to `CC(C)(C)c1csc(NC(=O)NCc2cccc(Cl)c2)n1`, the Survival turned out to be 50% in the assay with Mus musculus [5] and 25% with Mus musculus [6]. In the assay with Staphylococcus aureus [1], this compound returned a minimal inhibitory concentration (MIC) of 8.1 mg/L (≈ 25 µM).
In turn, `O=C(Nc1cccc(Br)c1)Nc1nc(-c2ccc(Br)cc2)cs1` returned an IC50 in the assay with Staphylococcus aureus [2] of 0.543 µM.
`COc1cc(NC(=O)Nc2nc(-c3ccc(Cl)cc3)cs2)cc(OC)c1`: the IC50 in the assay with Staphylococcus aureus [2] is above 5 µM.
The compound `O=C(NCc1ccc(Cl)c(Cl)c1)Nc1nc(-c2ccc(Br)cc2)cs1` showed an MIC in the assay with Staphylococcus aureus [1] of 11.4 mg/L (≈ 24.9 µM).
The compound `O=C(Nc1cc(Cl)cc(Cl)c1)Nc1cc(-c2ccccc2)nn1-c1ccc(C(F)(F)F)cc1` yielded a minimum inhibitory concentration (MIC) against Staphylococcus aureus [1] of 12.3 mg/L (≈ 25 µM). The survival at 2 mg/kg with Mus musculus [7] came out at 0%. Further, in the assay with Staphylococcus aureus [2], the IC50 worked out at 0.081 µM. The same compound yielded a survival at 20 mg/kg with Mus musculus [8] of 12.5%.
Consider `O=C(Nc1cc(C(F)(F)F)cc(C(F)(F)F)c1)Nc1c(-c2ccccc2)cnn1-c1ccc(C(F)(F)F)cc1`, for which the survival at 2 mg/kg with Mus musculus [7] worked out at 0%. Also, in the assay with Staphylococcus aureus [2], half-maximal inhibition (IC50) required 0.33 µM. Also, the survival at 20 mg/kg in the assay on Mus musculus [8] was determined as 0%.
Turning to `CCOC(=O)c1cc(NC(=O)Nc2cc(C(F)(F)F)cc(C(F)(F)F)c2)n(-c2ccc(Br)cc2)n1`, the Survival in the assay with Mus musculus [5] was found to be 33%; with Mus musculus [6], 0%. In the assay with Staphylococcus aureus [1], this compound registered an MIC above 14.1 mg/L. This compound also showed a 50% inhibitory concentration (IC50) in the assay on Staphylococcus aureus [2] of 3.1 µM.
In the case of `O=C(Nc1cc(C(F)(F)F)cc(C(F)(F)F)c1)Nc1nc(-c2ccc(Br)cc2)cs1`, half-maximal inhibition in the assay with Staphylococcus aureus [2] (IC50) required 0.133 µM. In other words, the sub-micromolar range.
As to `CC(C)(C)c1cc(NC(=O)Nc2cc(Cl)cc(Cl)c2)n(-c2ccc(Br)cc2)n1`, the minimum inhibitory concentration (MIC) in the assay with Staphylococcus aureus [1] was below 0.723 mg/L. Besides, the survival at 2 mg/kg with Mus musculus [7] worked out at 0%. Moreover, the midpoint of inhibition with Staphylococcus aureus [2], the IC50, lay at 0.132 µM. This compound displayed a survival at 20 mg/kg in the assay on Mus musculus [8] of 0%.
For `Cc1ccccc1NC(=O)Nc1cc(-c2ccccc2)nn1-c1ccc(C(F)(F)F)cc1`, the IC50 result in the assay with Staphylococcus aureus [3] is reported as “Not Active”. In addition, in the assay on Staphylococcus aureus [4], the MIC result is “inactive”.
Compound `O=C(Nc1cc(Cl)cc(Cl)c1)Nc1cc(-c2cccs2)nn1-c1ccc(Br)cc1` registered an MIC in the assay with Staphylococcus aureus [1] of 0.847 mg/L (≈ 1.67 µM). In addition, the survival at 2 mg/kg with Mus musculus [7] stood at 0%. Besides, the IC50 in the assay on Staphylococcus aureus [2] came to 0.071 µM. The compound also displayed a survival at 20 mg/kg in the assay with Mus musculus [8] of 25%.
The compound `O=C(Nc1cc(C(F)(F)F)cc(C(F)(F)F)c1)Nc1nc(CCc2ccccc2)cs1` came in with an MIC in the assay with Staphylococcus aureus [1] of 23 mg/L (≈ 50.1 µM). Moreover, the IC50 in the assay with Staphylococcus aureus [2] is 0.367 µM.
In the case of `COc1ccc(OC)c(-c2csc(NC(=O)Nc3cc(C(F)(F)F)cc(C(F)(F)F)c3)n2)c1`, the 50% inhibitory concentration (IC50) with Staphylococcus aureus [2] is above 5 µM.
In turn, `Cc1sc(NC(=O)Nc2cc(C(F)(F)F)cc(C(F)(F)F)c2)nc1-c1ccc(Br)cc1` gave an IC50 in the assay with Staphylococcus aureus [2] of 0.838 µM.
`COCCN(CCOC)Cc1cc(NC(=O)Nc2cc(C(F)(F)F)cc(C(F)(F)F)c2)n(-c2ccc(Br)cc2)n1`: the Survival in the assay with Mus musculus [5] turned out to be 33%; with Mus musculus [6] it was 0%. The MIC with Staphylococcus aureus [1] was 16 mg/L (≈ 25.1 µM). Moreover, in the assay on Mus musculus [7], the survival at 2 mg/kg amounted to 25%. Besides, it took 1.56 µM to reach half-maximal inhibition with Staphylococcus aureus [2] (IC50). In the assay with Mus musculus [8], this compound came in with a survival at 20 mg/kg of 25%.
